Experimental data as given in patent publication US6900198B2, “Synthetic catalytic free radical scavengers useful as antioxidants for prevention and therapy of disease” (Eukarion, Inc., priority 1995, dated 2005).
One block for each molecule: values may come before it.

Columns and labels:
Hippocampal slices = experiment: Anoxia in hippocampal slices, EPSP recovery; assay type: cell-based, Sprague-Dawley rats; settings: C7 50 μM
Text: Anoxia in hippocampal slices. […] A glass recording micropipet was positioned in CA1 stratum radiatum to record excitatory postsynaptic potential (EPSPs) generated by electrical stimulation of the Schaffer-commissural pathway by a bipolar stimulation electrode at a frequency of 0.033 Hz. During anoxic episodes, the oxygen supply was replaced with 100% N2 gas. N2 was supplied for 90 seconds following electrical silence after which O2 was reintroduced. Recovery of EPSPs (both slope and amplitude) was recorded for 50 minutes, at which time the final viability of the slices was determined, with viability being defined as the ability of the slice to generate a 3 mV EPSP.

[1] = Catalase activity, polarographic oxygen electrode; assay type: biochemical; settings: 10 μM salen manganese complex, 10 mM H2O2
Method: Catalase activity was assayed by monitoring the conversion of H2O2 to oxygen using a Clark-type polarographic oxygen electrode. The apparatus consisted of a Mini Clark Style electrode, a 600 μl Oxygen Uptake Chamber, and a Chemical Microsensor system, all obtained from Diamond General Corporation (Ann Arbor, Mich.). The electrode was calibrated by immersion in nitrogen- or air-equilibrated buffers using a Dual Chamber Calibration Cell (Diamond General, Corp.). Catalase reaction mixtures consisted of 50 mM sodium phosphate, pH 8.1,0.9% sodium chloride, and salen manganese complex and H2O2 at the indicated concentrations. The temperature of the water-jacketed reaction chamber, as well as the calibration buffers, was maintained at 25±0.1° C. Data were collected at 1 sec intervals and stored on a MacIntosh II computer using data acquisition hardware and software by Strawberry Tree, Inc. (Sunnyvale, Calif.). Dissolved oxygen concentrations were calculated as described previously (Del Rio et al. (1977) Anal. Biochem. 80: 409) based on a value of 2.5×10^−4 M oxygen for air-saturated buffer at 25° C. Linearity of the dissolved oxygen measurements within the experimental range was continued by determining the amount of oxygen generated from known quantities of H2O2 during exhaustive treatment with bovine liver catalase. Stock solutions of H2O2 were prepared by diluting a commercial 30% H2O2 solution in water and the H2O2 concentrations in these stocks were determined by absorbance at 240 nm, using a molar extinction coefficient of 44 (Stadtman, E R. et al. (1990) Proc. Natl. Acad. Sci. USA 87: 384). […] In the absence of salen manganese complex, H2O2 alone typically produced an early, relatively slow increase in signal. The slope of this increased signal was not proportional to H2O2 concentration (for example in one experiment, 1 and 10 Mm H2O2 yielded apparent rates of 12 and 14 μM oxygen per min, respectively) and may be due to an electrode artifact. […] Where presented, initial rates were calculated by determining the slope of the linear portion of time dependent plots of oxygen generation, usually comprising the first five seconds of the reaction. Unless otherwise indicated, these were corrected by subtracting the rate obtained with H2O2 alone. Where presented, endpoint oxygen generated was calculated from time-dependent plots, such as those shown in FIG. 14, as the difference between the baseline oxygen concentration immediately prior to-substrate addition and the maximal oxygen concentration achieved during the course of the reaction. All reactions subjected to these calculations were run for a sufficient time to ensure that oxygen generation had ceased.
Compounds were assayed for SOD as described under Experimental procedures, using cytochrome C as acceptor. […]

[2] = Peroxidase activity, H2O2-dependent oxidation of ABTS; assay type: biochemical; settings: for peroxidase activity (relative, in words): 10 μM salen manganese complex, 0.2 mM H2O2
Method: (§1) Peroxidase activity was assayed by monitoring the hydrogen peroxide-dependent oxidation of 2,2′-azino-bis(3-ethylbenzthiazoline-6) sulfonic acid (ABTS) spectrophotometrically. Standard assay mixtures consisted of 50 mM sodium phosphate, pH 8.1, 0.9% sodium chloride, 0.5 mM ABTS, and H2O2 and salen manganese complex as indicated. Where indicated, 50 mM sodium phosphate buffers of pH 6.0 or pH 7.1 were substituted. Assays were conducted at 27±0.2° C. ABTS oxidation was monitored at 740 or 500 nm to eliminate interference by the salen manganese complexes, many of which absorb in the vicinity of the λmax of oxidized ABTS, and to avoid absorbance values that exceeded the linear range of the spectrophotometer. The amount of oxidized ABTS was estimated using an Δε740 of 20,300 M^−1cm^−1 or an Δε500 of 3400 M^−1cm^−1 calculated based upon the published molar extinction coefficient oat 405 nm (36,800).
Compounds were assayed for SOD as described under Experimental procedures, using cytochrome C as acceptor. The concentration of each compound showing half-maximal activity in this assay is presented. Catalase and peroxidase activities were conducted as described under Experimental Procedures, with 10 μM salen manganese complex. The H2O2 concentration was 10 mM and 0.2 mM in the catalase and peroxidase assays, respectively. Where denoted, “nd” means that the assay was not performed on this compound.
Catalase and peroxidase activities were assayed as described in Example 2. Catalase assays contained 10 μM salen-manganese complex and 10 mM hydrogen peroxide. Peroxidase assays contained 10 μM salen-manganese complex and 0.2 mM hydrogen peroxide. Glucose-glucose oxidase toxicity assays were performed using human dermal fibroblasts as described in Example 2.

[3] = Peroxidase activity toward t-BHP, ABTS oxidation; assay type: biochemical; settings: 1 mM t-BHP versus same concentration of H2O2
Method: as §1
(In comparison, horseradish peroxidase utilized t-BHP with an ABTS oxidation rate that was about 5.4% of the rate with H2O2).

[4] = tested on: Human dermal fibroblasts (HF cells); experiment: Protection against glucose and glucose oxidase toxicity in human fibroblasts (XTT); assay type: cell-based; settings: glucose oxidase 0.019 units/ml
Method: Cytotoxicity studies were performed as described under Experimental procedures. Absorbance values, corrected by subtracting the blank signal of 0.17 OD units, are the means±sd of triplicate samples. Control cells (open circle) received no glucose oxidase. Catalase-treated (solid circle) cells received glucose oxidase (0.019) units/ml) as well as bovine liver catalase (290 units/ml). Other samples received the same dose of glucose oxidase and the indicated concentrations of salen manganese complex.
(§2) Human dermal fibroblasts (HF cells) were obtained from the American type tissue Culture Collection at passage 1 and cultured and propagated in a medium (HF medium) consisting of Dulbecco's Modified Eagle's Medium with 4.5 g/l D-glucose, 10% calf serum 4 mM glutamine, 50 units/ml penicillin, and 50 μg/ml streptomycin in a 37° C. humidified incubator equilibrated with 5% CO2. Cells were used at passages 5 or 6 for experiments. […] After 2 hr., the absorbance at 490 nm was measured in a BioRad (Richmond, Calif.) Model 3550 plate-reader, using a reference wavelength of 655 nm. […] Absorbance measurements for blank wells, containing HF medium and XTT reagent but no cells, were also determined. […] Fresh HF medium was then added and cell viability assessed using the XTT reagent as described above. […]

[5] = tested on: Human dermal fibroblasts (HF cells); experiment: Protection against t-butyl hydroperoxide toxicity in human fibroblasts (XTT); assay type: cell-based; settings: 80 μM with 0.5 mM t-BHP
Method: as §2, with “experiments. For cell protection assays, HF cells were seeded at a density of about 15,000 cells per cm2 onto 96-well culture plates and allowed to grow to confluence.” for “experiments.”
Cell protection assays were performed as described under Experimental Procedures with salen-manganese complexes administered at the indicated concentrations and t-BHP at 0.5 mM. Cell viability was assessed using the XTT reagent as described and is expressed as the absorbance at 490 nm uncorrected for blank. […]

Molecule: Purified bovine SOD: purified bovine superoxide dismutase
protection against anoxia-induced decrease in synaptic response in CA1 (EPSP slope and amplitude) (Hippocampal slices): no protection

Molecule: COc1cccc2c1[O][Mn]([O]C(C)=O)[O]c1c(cccc1OC)C=NCCCN=C2 [Compound C51]
catalase activity, initial rate (relative, in words) [1]: reduced catalase and peroxidase activities
peroxidase activity (relative, in words) [2]: reduced catalase and peroxidase activities

Molecule: horseradish peroxidase
ABTS oxidation rate with t-BHP as percent of the rate with H2O2 [3]: about 5.4%

catalase activity, initial rate (relative, in words) [1]: about twice as fast as C7
catalase endpoint: total oxygen generated / turnovers completed before the reaction ceased (relative, in words) [1]: almost twice the amount of oxygen as C7
catalase turnovers before the reaction ceased [1]: about 16 turnovers
Molecule: COc1cccc2c1[O][Mn]([O]C(C)=O)[O]c1c(cccc1OC)C=NCCN=C2 [Compound C32]
peroxidase activity (relative, in words) [2]: fastest peroxidases
protection against glucose and glucose oxidase (overall, in words) [4]: more protective than C43

Molecule: CC(=O)[O][Mn]1[O]c2ccccc2C=NCCN=Cc2ccccc2[O]1 [Compound C31]
reduced viability at 80 μM relative to 40 μM together with t-BHP [5]: possible synergistic toxicity with t-BHP
protection against glucose and glucose oxidase (overall, in words) [4]: about equally as effective as C7

B1: bovine liver catalase: bovine liver catalase enzyme used as reference (protein, UniProt P00432 2-527, looked up)
Catalase: ADNRDPASDQMKHWKEQRAAQKPDVLTTGGGNPVGDKLNSLTVGPRGPLLVQDVVFTDEMAHFDRERIPERVVHAKGAGAFGYFEVTHDITRYSKAKVFEHIGKRTPIAVRFSTVAGESGSADTVRDPRGFAVKFYTEDGNWDLVGNNTPIFFIRDALLFPSFIHSQKRNPQTHLKDPDMVWDFWSLRPESLHQVSFLFSDRGIPDGHRHMNGYGSHTFKLVNANGEAVYCKFHYKTDQGIKNLSVEDAARLAHEDPDYGLRDLFNAIATGNYPSWTLYIQVMTFSEAEIFPFNPFDLTKVWPHGDYPLIPVGKLVLNRNPVNYFAEVEQLAFDPSNMPPGIEPSPDKMLQGRLFAYPDTHRHRLGPNYLQIPVNCPYRARVANYQRDGPMCMMDNQGGAPNYYPNSFSAPEHQPSALEHRTHFSGDVQRFNSANDDNVTQVRTFYLKVLNEEQRKRLCENIAGHLKDAQLFIQKKAVKNFSDVHPEYGSRIQALLDKYNEEKPKNAVHTYVQHGSHLSAREKANL
reduction of the initial rate of ABTS oxidation by C7 ([2]; 29 units/ml bovine liver catalase added, 10 mM H2O2): 55%
